How the values were obtained:
redroot pigweed = assay: Test A pre-/postemergence greenhouse test; format: in vivo, Amaranthus retroflexus; conditions: for Plant response rating, Pigweed: 0 to 100 scale where 0 is no effect and 100 is complete control; for Pigweed plant response rating: 0 to 100 scale
Method in brief: (§1)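 Seeds sown in a loam soil–sand blend got a preemergence directed soil spray of compound in a non-phytotoxic solvent mixture containing surfactant. Postemergence sprays of the same formulation went at the same time onto plants 2–10 cm tall at the one- to two-leaf stage. Injury was scored visually against untreated controls after about ten days in the greenhouse.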

cocklebur = assay: Test C pre-/postemergence test; format: in vivo, Xanthium strumarium; conditions: for Plant response rating, Cocklebur: 31 g ai/ha, scale 0 to 100 (0 no effect, 100 complete control)
Method in brief: (§2)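 Compounds in a non-phytotoxic solvent with surfactant applied preemergence to seeded pots and, at the same time, postemergence to plants 2–18 cm tall (1- to 4-leaf stage). Paddy tests: pots flooded to 3 cm, compound applied into the water, depth held throughout.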

velvetleaf = assay: Test C pre-/postemergence test; format: in vivo, Abutilon theophrasti; conditions: for Plant response rating, Velvetleaf: 31 g ai/ha, scale 0 to 100 (0 no effect, 100 complete control)
Method in brief: as §2

downy brome = assay: Test C pre-/postemergence test; format: in vivo, Bromus tectorum; conditions: for Plant response rating, Bromegrass, Downy: 31 g ai/ha, scale 0 to 100 (0 no effect, 100 complete control)
Method in brief: as §2

eastern black nightshade = assay: Test C pre-/postemergence test; format: in vivo, Solanum ptycanthum; conditions: for Plant response rating, Nightshade: 31 g ai/ha, scale 0 to 100 (0 no effect, 100 complete control)
Method in brief: as §2

kochia = assay: Test C pre-/postemergence test; format: in vivo, Kochia scoparia; conditions: for Plant response rating, Kochia: 31 g ai/ha, scale 0 to 100 (0 no effect, 100 complete control)
Method in brief: as §2

wheat [1] = assay: Test C pre-/postemergence test; format: in vivo, Triticum aestivum; conditions: for Plant response rating, Wheat: 31 g ai/ha, scale 0 to 100 (0 no effect, 100 complete control)
Method in brief: as §2

morningglory = assay: Test A pre-/postemergence greenhouse test; format: in vivo, Ipomoea spp.; conditions: for Plant response rating, Morningglory: 0 to 100 scale where 0 is no effect and 100 is complete control; for Morningglory plant response rating: 0 to 100 scale
Method in brief: as §1

lambsquarters = assay: Test C pre-/postemergence test; format: in vivo, Chenopodium album; conditions: for Plant response rating, Lambsquarters: 31 g ai/ha, scale 0 to 100 (0 no effect, 100 complete control)
Method in brief: as §2

giant foxtail [2] = assay: Test A pre-/postemergence greenhouse test; format: in vivo, Setaria faberi; conditions: for Plant response rating, Foxtail, Giant: 0 to 100 scale where 0 is no effect and 100 is complete control; for Foxtail, Giant plant response rating: 0 to 100 scale
Method in brief: as §1

catchweed bedstraw = assay: Test C pre-/postemergence test; format: in vivo, Galium aparine; conditions: for Plant response rating, Galium: 31 g ai/ha, scale 0 to 100 (0 no effect, 100 complete control)
Method in brief: as §2

wild oat = assay: Test C pre-/postemergence test; format: in vivo, Avena fatua; conditions: for Plant response rating, Oat, Wild: 31 g ai/ha, scale 0 to 100 (0 no effect, 100 complete control)
Method in brief: as §2

wheat [3] = assay: Test A pre-/postemergence greenhouse test; format: in vivo, Triticum aestivum; conditions: for Plant response rating, Wheat: 0 to 100 scale where 0 is no effect and 100 is complete control; for Wheat plant response rating: 0 to 100 scale
Method in brief: as §1

woolly cupgrass = assay: Test C pre-/postemergence test; format: in vivo, Eriochloa villosa; conditions: for Plant response rating, Cupgrass, Woolly: 31 g ai/ha, scale 0 to 100 (0 no effect, 100 complete control)
Method in brief: as §2

giant foxtail [4] = assay: Test C pre-/postemergence test; format: in vivo, Setaria faberii; conditions: for Plant response rating, Foxtail, Giant: 31 g ai/ha, scale 0 to 100 (0 no effect, 100 complete control)
Method in brief: as §2

Surinam grass = assay: Test C pre-/postemergence test; format: in vivo, Brachiaria decumbens; conditions: for Plant response rating, Surinam Grass: 31 g ai/ha, scale 0 to 100 (0 no effect, 100 complete control)
Method in brief: as §2

[5] = tested on: common (oilseed) sunflower; assay: Test C pre-/postemergence test; format: in vivo, Helianthus annuus; conditions: for Plant response rating, Sunflower: 31 g ai/ha, scale 0 to 100 (0 no effect, 100 complete control)
Method in brief: as §2

blackgrass = assay: Test C pre-/postemergence test; format: in vivo, Alopecurus myosuroides; conditions: for Plant response rating, Blackgrass: 31 g ai/ha, scale 0 to 100 (0 no effect, 100 complete control)
Method in brief: as §2

common ragweed = assay: Test C pre-/postemergence test; format: in vivo, Ambrosia elation; conditions: for Plant response rating, Ragweed: 31 g ai/ha, scale 0 to 100 (0 no effect, 100 complete control)
Method in brief: as §2

[6] = Postemergence, 500 g ai/ha, 0 is no effect, 100 is complete control
[7] = Preemergence, 125 g ai/ha, 0 no effect, 100 complete control
[8] = 125 g ai/ha, preemergence, scale 0 (no effect) to 100 (complete control)
[9] = preemergence, 250 g ai/ha, scale 0 (no effect) to 100 (complete control)
[10] = 62 g ai/ha, Preemergence, scale 0 to 100
[11] = Postemergence, 125 g ai/ha, 0 is no effect, 100 is complete control
[12] = preemergence, 125 g ai/ha, scale 0 (no effect) to 100 (complete control)

CC(Oc1c(C[S+]([O-])c2cccc[n+]2[O-])c(C(F)(F)F)nn1C)C(F)(F)F (stereo not shown) [Compound 77]
70: Plant response rating, Pigweed (redroot pigweed; Postemergence, 125 g ai/ha) | Pigweed plant response rating (redroot pigweed; [7]) | Bromegrass, Downy plant response rating (downy brome; [8]) | Plant response rating, Morningglory (morningglory; Postemergence, 125 g ai/ha) | Morningglory plant response rating (morningglory; [7]) | Oat, Wild plant response rating (wild oat; [10]) | Wheat plant response rating (wheat [3]; [6])
20: Plant response rating, Wheat (wheat [1]; Preemergence)
95: Wheat plant response rating (wheat [1]; [9]) | Oat, Wild plant response rating (wild oat; [9])
45: Bromegrass, Downy plant response rating (downy brome; [10])
0: Cocklebur plant response rating (cocklebur; [8]) | Plant response rating, Cocklebur (cocklebur; Preemergence) | Cocklebur plant response rating (cocklebur; [9]) | Plant response rating, Bromegrass, Downy (downy brome; Preemergence) | Sunflower plant response rating [5, 10] | Plant response rating, Sunflower ([5]; Preemergence)
85: Plant response rating, Surinam Grass (Surinam grass; Preemergence)
90: Morningglory plant response rating (morningglory; [6]) | Foxtail, Giant plant response rating (giant foxtail [2]; [6]) | Foxtail, Giant plant response rating (giant foxtail [2]; [7]) | Oat, Wild plant response rating (wild oat; [8])
98: Cupgrass, Woolly plant response rating (woolly cupgrass; [10]) | Sunflower plant response rating [5, 9]
40: Wheat plant response rating (wheat [1]; [10])
100: Plant response rating, Pigweed (redroot pigweed; Preemergence, 500 g ai/ha) | Velvetleaf plant response rating (velvetleaf; [10]) | Velvetleaf plant response rating (velvetleaf; [8]) | Velvetleaf plant response rating (velvetleaf; [9]) | Bromegrass, Downy plant response rating (downy brome; [9]) | Nightshade plant response rating (eastern black nightshade; [10]) | Nightshade plant response rating (eastern black nightshade; [8]) | Plant response rating, Nightshade (eastern black nightshade; Preemergence) | Nightshade plant response rating (eastern black nightshade; [9]) | Kochia plant response rating (kochia; [10]) | Kochia plant response rating (kochia; [8]) | Plant response rating, Kochia (kochia; Preemergence) | Kochia plant response rating (kochia; [9]) | Plant response rating, Morningglory (morningglory; Preemergence, 500 g ai/ha) | Lambsquarters plant response rating (lambsquarters; [10]) | Lambsquarters plant response rating (lambsquarters; [8]) | Plant response rating, Lambsquarters (lambsquarters; Preemergence) | Lambsquarters plant response rating (lambsquarters; [9]) | Plant response rating, Foxtail, Giant (giant foxtail [2]; Preemergence, 500 g ai/ha) | Galium plant response rating (catchweed bedstraw; [10]) | Galium plant response rating (catchweed bedstraw; [8]) | Plant response rating, Galium (catchweed bedstraw; Preemergence) | Galium plant response rating (catchweed bedstraw; [9]) | Plant response rating, Wheat (wheat [3]; Preemergence, 500 g ai/ha) | Cupgrass, Woolly plant response rating (woolly cupgrass; [8]) | Cupgrass, Woolly plant response rating (woolly cupgrass; [9]) | Foxtail, Giant plant response rating (giant foxtail [4]; [10]) | Foxtail, Giant plant response rating (giant foxtail [4]; [8]) | Foxtail, Giant plant response rating (giant foxtail [4]; [9]) | Surinam Grass plant response rating (Surinam grass; [10]) | Surinam Grass plant response rating (Surinam grass; [8]) | Surinam Grass plant response rating (Surinam grass; [9]) | Blackgrass plant response rating (blackgrass; [10]) | Blackgrass plant response rating (blackgrass; [8]) | Plant response rating, Blackgrass (blackgrass; Preemergence) | Blackgrass plant response rating (blackgrass; [9]) | Ragweed plant response rating (common ragweed; [10]) | Ragweed plant response rating (common ragweed; [8]) | Plant response rating, Ragweed (common ragweed; Preemergence) | Ragweed plant response rating (common ragweed; [9])
35: Plant response rating, Oat, Wild (wild oat; Preemergence)
80: Pigweed plant response rating (redroot pigweed; [6]) | Wheat plant response rating (wheat [1]; [8]) | Plant response rating, Foxtail, Giant (giant foxtail [2]; Postemergence, 125 g ai/ha) | Plant response rating, Cupgrass, Woolly (woolly cupgrass; Preemergence) | Plant response rating, Foxtail, Giant (giant foxtail [4]; Preemergence) | Sunflower plant response rating [5, 8]
50: Plant response rating, Wheat (wheat [3]; Postemergence, 125 g ai/ha) | Wheat plant response rating (wheat [3]; [7])
60: Plant response rating, Velvetleaf (velvetleaf; Preemergence)

Cc1cc[n+]([O-])c(S(=O)(=O)Cc2c(C(F)(F)F)nn(C)c2Cl)c1 [Compound 19]
85: Plant response rating, Nightshade (eastern black nightshade; Preemergence) | Plant response rating, Galium (catchweed bedstraw; Preemergence)
70: Plant response rating, Wheat (wheat [3]; Preemergence, 500 g ai/ha)
40: Wheat plant response rating (wheat [3]; [7])
30: Pigweed plant response rating (redroot pigweed; [6]) | Plant response rating (0 to 100), Cocklebur (cocklebur; Preemergence, 250 g ai/ha) | Morningglory plant response rating (morningglory; [6])
0: Cocklebur plant response rating (cocklebur; [10]) | Plant response rating, Cocklebur (cocklebur; Preemergence) | Cocklebur plant response rating (cocklebur; [12]) | Velvetleaf plant response rating (velvetleaf; [10]) | Plant response rating, Velvetleaf (velvetleaf; Preemergence) | Bromegrass, Downy plant response rating (downy brome; [10]) | Plant response rating, Bromegrass, Downy (downy brome; Preemergence) | Plant response rating (0 to 100), Bromegrass, Downy (downy brome; Preemergence, 250 g ai/ha) | Bromegrass, Downy plant response rating (downy brome; [12]) | Plant response rating, Kochia (kochia; Preemergence) | Wheat plant response rating (wheat [1]; [10]) | Plant response rating, Wheat (wheat [1]; Preemergence) | Lambsquarters plant response rating (lambsquarters; [10]) | Plant response rating, Lambsquarters (lambsquarters; Preemergence) | Oat, Wild plant response rating (wild oat; [10]) | Plant response rating, Oat, Wild (wild oat; Preemergence) | Wheat plant response rating (wheat [3]; [11]) | Plant response rating, Cupgrass, Woolly (woolly cupgrass; Preemergence) | Plant response rating, Surinam Grass (Surinam grass; Preemergence) | Sunflower plant response rating [5, 10] | Plant response rating, Sunflower ([5]; Preemergence) | Blackgrass plant response rating (blackgrass; [10]) | Plant response rating, Blackgrass (blackgrass; Preemergence) | Blackgrass plant response rating (blackgrass; [12]) | Ragweed plant response rating (common ragweed; [10]) | Plant response rating, Ragweed (common ragweed; Preemergence)
10: Pigweed plant response rating (redroot pigweed; [11])
60: Morningglory plant response rating (morningglory; [7])
50: Foxtail, Giant plant response rating (giant foxtail [2]; [11]) | Wheat plant response rating (wheat [3]; [6]) | Surinam Grass plant response rating (Surinam grass; [10])
100: Pigweed plant response rating (redroot pigweed; [7]) | Plant response rating, Pigweed (redroot pigweed; Preemergence, 500 g ai/ha) | Nightshade plant response rating (eastern black nightshade; [10]) | Kochia plant response rating (kochia; [10]) | Plant response rating, Foxtail, Giant (giant foxtail [2]; Preemergence, 500 g ai/ha) | Galium plant response rating (catchweed bedstraw; [10]) | Plant response rating (0 to 100), Galium (catchweed bedstraw; Preemergence, 250 g ai/ha) | Cupgrass, Woolly plant response rating (woolly cupgrass; [10]) | Plant response rating (0 to 100), Cupgrass, Woolly (woolly cupgrass; Preemergence, 250 g ai/ha) | Foxtail, Giant plant response rating (giant foxtail [4]; [10]) | Plant response rating, Foxtail, Giant (giant foxtail [4]; Preemergence) | Plant response rating (0 to 100), Foxtail, Giant (giant foxtail [4]; Preemergence, 250 g ai/ha) | Plant response rating (0 to 100), Blackgrass (blackgrass; Preemergence, 250 g ai/ha)
20: Morningglory plant response rating (morningglory; [11])
80: Plant response rating, Morningglory (morningglory; Preemergence, 500 g ai/ha) | Foxtail, Giant plant response rating (giant foxtail [2]; [6]) | Foxtail, Giant plant response rating (giant foxtail [2]; [7])

Reference: patent publication US20100298141A1, “SUBSTITUTED PYRIDINE N-OXIDE HERBICIDES” (E. I. DU PONT DE NEMOURS AND COMPANY, priority 2007, published 2010)
